Experimental data taken from patent US9988400B2 (Genentech, Inc., priority 2013, dated 2018).

Target: T1, HEK cells stably transfected with tetracycline inducible hNR1 and hNR2A (Homo sapiens, UniProt Q05586+Q12879)
T1 construct: expressed in transfected cells; host or cells: HEK cells, stably transfected, tetracycline/doxycycline inducible
Assay: Assay 1: Cell-Based Assay, cytosolic calcium response to positive allosteric modulators (with 30 μM glycine and 300 nM L-glutamate, EC30)
Conditions: Table 2; for EC50: cytosolic calcium response, with 30 μM glycine and 300 nM L-glutamate (EC30), — = no plateau was reached; for Max %: responses scaled relative to 100 μM L-glutamate maximal response (100%) and 0 μM L-glutamate (0%)
How it was run: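 Cells induced 24 h with 7.5 μg mL^−1 doxycycline plus 500 μM (+)-ketamine, loaded 60 min at 37 °C with calcium dye in Mg-free HBSS (1.8 mM Ca, probenecid, 10 μM (+)-ketamine, pH 7.15). Peak RFU over 5 min after compound addition, scaled to 100 μM L-glutamate (100%) and 0 μM (0%); four-parameter Hill fit for EC50, max % if no plateau.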

T1 sequence (Q12879 23-1464, other chains not shown): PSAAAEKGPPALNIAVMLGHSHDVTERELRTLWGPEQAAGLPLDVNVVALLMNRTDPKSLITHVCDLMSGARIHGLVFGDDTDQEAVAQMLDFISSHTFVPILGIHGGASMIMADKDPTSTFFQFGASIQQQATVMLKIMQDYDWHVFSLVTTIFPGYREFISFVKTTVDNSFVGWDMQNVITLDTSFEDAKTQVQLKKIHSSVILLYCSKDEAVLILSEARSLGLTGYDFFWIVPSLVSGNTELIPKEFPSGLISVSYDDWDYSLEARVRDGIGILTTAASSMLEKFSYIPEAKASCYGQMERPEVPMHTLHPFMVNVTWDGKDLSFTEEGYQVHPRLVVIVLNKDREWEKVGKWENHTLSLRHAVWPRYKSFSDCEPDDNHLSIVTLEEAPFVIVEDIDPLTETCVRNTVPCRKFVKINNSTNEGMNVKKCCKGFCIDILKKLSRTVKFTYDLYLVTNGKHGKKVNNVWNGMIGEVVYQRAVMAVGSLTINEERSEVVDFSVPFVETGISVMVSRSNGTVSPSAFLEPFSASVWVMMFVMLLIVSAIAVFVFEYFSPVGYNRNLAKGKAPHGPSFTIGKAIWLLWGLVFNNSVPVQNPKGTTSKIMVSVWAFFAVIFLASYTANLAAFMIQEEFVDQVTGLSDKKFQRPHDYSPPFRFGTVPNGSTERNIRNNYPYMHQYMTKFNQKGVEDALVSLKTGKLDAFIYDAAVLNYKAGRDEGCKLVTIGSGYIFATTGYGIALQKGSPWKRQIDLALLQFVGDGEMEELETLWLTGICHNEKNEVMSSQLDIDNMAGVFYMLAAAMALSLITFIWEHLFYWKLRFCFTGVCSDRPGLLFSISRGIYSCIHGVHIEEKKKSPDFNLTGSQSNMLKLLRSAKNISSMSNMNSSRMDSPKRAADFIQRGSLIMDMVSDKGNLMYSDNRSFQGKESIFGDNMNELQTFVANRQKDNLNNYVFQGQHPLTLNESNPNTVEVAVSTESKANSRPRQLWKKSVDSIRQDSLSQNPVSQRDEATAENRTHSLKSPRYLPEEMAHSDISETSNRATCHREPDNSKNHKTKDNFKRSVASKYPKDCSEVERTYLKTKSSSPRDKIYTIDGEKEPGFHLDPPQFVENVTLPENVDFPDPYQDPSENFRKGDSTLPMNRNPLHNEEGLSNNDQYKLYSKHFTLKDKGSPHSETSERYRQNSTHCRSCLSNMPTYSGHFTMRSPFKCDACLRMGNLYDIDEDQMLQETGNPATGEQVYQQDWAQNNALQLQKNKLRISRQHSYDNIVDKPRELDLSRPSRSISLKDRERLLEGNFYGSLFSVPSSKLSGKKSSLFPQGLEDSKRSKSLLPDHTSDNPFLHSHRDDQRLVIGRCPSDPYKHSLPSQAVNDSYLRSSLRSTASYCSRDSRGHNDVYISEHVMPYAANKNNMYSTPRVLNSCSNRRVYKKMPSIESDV

Row | EC50 | Max % | Structure (SMILES)
1 | 5.1 µM | 120% | CCN(Cc1cc(=O)n2c(-c3cncc(OC)c3)c(C)sc2n1)c1ccc(F)cc1 [Example 5.58, 7-[(N-ethyl-4-fluoro-anilino)methyl]-3-(5-methoxy-3-pyridyl)-2-methyl-thiazolo[3,2-a]pyrimidin-5-one]
2 | 10 µM | 123% | CCN(Cc1cc(=O)n2c(N3CCOCC3)c(C)sc2n1)c1ccc(F)cc1 [Example 6.1, 7-((ethyl(4-fluorophenyl)amino)methyl)-2-methyl-3-morpholino-5H-thiazolo[3,2-a]pyrimidin-5-one]
3 | 5 µM | 121% | CCN(Cc1cc(=O)n2c(N(C)C)c(C)sc2n1)c1ccc(F)cc1 [Example 6.2, 3-(dimethylamino)-7-((ethyl(4-fluorophenyl)amino)methyl)-2-methyl-5H-thiazolo[3,2-a]pyrimidin-5-one]
4 | 10.1 µM | 91.9% | CCN(Cc1cc(=O)n2c(N3CCCC3)c(C)sc2n1)c1ccc(F)cc1 [Example 6.3, 7-((ethyl(4-fluorophenyl)amino)methyl)-2-methyl-3-(pyrrolidin-1-yl)-5H-thiazolo[3,2-a]pyrimidin-5-one]
5 | 0.853 µM | 184% | CCN(Cc1cc(=O)n2c(C#N)c(C)sc2n1)c1ccc(F)c(F)c1 [Example 7.1, 7-(((3,4-difluorophenyl)(ethyl)amino)methyl)-2-methyl-5-oxo-5H-thiazolo[3,2-a]pyrimidine-3-carbonitrile]
6 | 0.612 µM | 134% | CCN(Cc1cc(=O)n2c(C#N)c(C)sc2n1)c1cccc(F)c1 [Example 7.2, 7-((ethyl(3-fluorophenyl)amino)methyl)-2-methyl-5-oxo-5H-thiazolo[3,2-a]pyrimidine-3-carbonitrile]
7 | 0.376 µM | 156% | CCN(Cc1cc(=O)n2c(C#N)c(C)sc2n1)c1ccc(F)cc1 [Example 7.3, 7-[(N-ethyl-4-fluoro-anilino)methyl]-2-methyl-5-oxo-thiazolo[3,2-a]pyrimidine-3-carbonitrile]
8 | 5.7 µM | 166% | CCN(Cc1cc(=O)n2c(C#N)csc2n1)c1ccc(F)cc1 [Example 7.4, 7-[(N-ethyl-4-fluoro-anilino)methyl]-5-oxo-thiazolo[3,2-a]pyrimidine-3-carbonitrile]
9 | 2.1 µM | 162% | Cc1sc2nc(CN3c4ccc(F)cc4CC3C)cc(=O)n2c1C#N (stereo not drawn) [Example 7.5, 7-((5-fluoro-2-methylindolin-1-yl)methyl)-2-methyl-5-oxo-5H-thiazolo[3,2-a]pyrimidine-3-carbonitrile]
10 | 3.7 µM | 151% | CCN(Cc1cc(=O)n2c(C#N)c(C)sc2n1)c1cccc(C#N)c1 [Example 7.6, 7-(((3-cyanophenyl)(ethyl)amino)methyl)-2-methyl-5-oxo-5H-thiazolo[3,2-a]pyrimidine-3-carbonitrile]
11 | 21 µM | 148% | CCN(Cc1cc(=O)n2c(C#N)c(C)sc2n1)c1ccccn1 [Example 7.7, 7-((ethyl(pyridin-2-yl)amino)methyl)-2-methyl-5-oxo-5H-thiazolo[3,2-a]pyrimidine-3-carbonitrile]
12 | 2.5 µM | 126% | Cc1sc2nc(CN3c4ccccc4CC3C)cc(=O)n2c1C#N (stereo not drawn) [Example 7.8, 2-methyl-7-((2-methylindolin-1-yl)methyl)-5-oxo-5H-thiazolo[3,2-a]pyrimidine-3-carbonitrile]
13 | 1.3 µM | 121% | CCN(Cc1cc(=O)n2c(C#N)c(C)sc2n1)c1cc(F)cc(F)c1 [Example 7.9, 7-(((3,5-difluorophenyl)(ethyl)amino)methyl)-2-methyl-5-oxo-5H-thiazolo[3,2-a]pyrimidine-3-carbonitrile]
14 | 5.2 µM | 146% | CCN(Cc1cc(=O)n2c3c(sc2n1)CCC3)c1ccc(F)cc1 [Example 8.1, 6-[(N-ethyl-4-fluoro-anilino)methyl]-2,3-dihydro-1H-cyclopenta[3,4]thiazolo[1,4-a]pyrimidin-8-one]
15 | 7.2 µM | 122% | CCN(Cc1cc(=O)n2c3c(sc2n1)CCCC3)c1ccc(F)cc1 [Example 8.2, 2-[(N-ethyl-4-fluoro-anilino)methyl]-6,7,8,9-tetrahydropyrimido[2,1-b][1,3]benzothiazol-4-one]
16 | 16.9 µM | 114% | CCN(Cc1cc(=O)n2c3c(sc2n1)CCC3CO)c1ccc(F)cc1 (stereo not drawn) [Example 8.5, 6-[(N-ethyl-4-fluoro-anilino)methyl]-1-(hydroxymethyl)-2,3-dihydro-1H-cyclopenta[3,4]thiazolo[1,4-a]pyrimidin-8-one]
17 |  | 60.5% | CCN(Cc1cc(=O)n2c3c(sc2n1)CCC31CCCC1)c1ccc(F)cc1 [Example 8.6, 6-[(N-ethyl-4-fluoro-anilino)methyl]spiro[2,3-dihydrocyclopenta[3,4]thiazolo[1,4-a]pyrimidine-1,1′-cyclopentane]-8-one]

Row | EC50 | Max % | Structure (SMILES)
18 |  | 81.4% | CCN(Cc1cc(=O)n2c3c(sc2n1)CCC3=O)c1ccc(F)cc1 [Example 8.7, 6-[(N-ethyl-4-fluoro-anilino)methyl]-2,3-dihydrocyclopenta[3,4]thiazolo[1,4-a]pyrimidine-1,8-dione]
19 | 8.7 µM | 108% | CCN(Cc1cc(=O)n2c3c(sc2n1)CCC3(C)C)c1ccc(F)cc1 [Example 8.8, 6-[(N-ethyl-4-fluoro-anilino)methyl]-1,1-dimethyl-2,3-dihydrocyclopenta[3,4]thiazolo[1,4-a]pyrimidin-8-one]
20 | 11.1 µM | 124% | CCN(Cc1cc(=O)n2c3c(sc2n1)CCOC3)c1ccc(F)cc1 [Example 8.9, 2-[(N-ethyl-4-fluoro-anilino)methyl]-8,9-dihydro-6H-pyrano[3,4]thiazolo[1,4-a]pyrimidin-4-one]
21 | 12.5 µM | 127% | CCN(Cc1cc(=O)n2c3c(sc2n1)CCN(C)C3)c1ccc(F)cc1 [Example 8.10, 2-[(N-ethyl-4-fluoro-anilino)methyl]-7-methyl-8,9-dihydro-6H-pyrido[3,4]thiazolo[1,4-a]pyrimidin-4-one]
22 | 2.7 µM | 154% | CCN(Cc1cc(=O)n2c3c(sc2n1)CCC3C(N)=O)c1ccc(F)cc1 (stereo not drawn) [Example 8.11, 6-[(N-ethyl-4-fluoro-anilino)methyl]-8-oxo-2,3-dihydro-1H-cyclopenta[3,4]thiazolo[1,4-a]pyrimidine-1-carboxamide]
23 | 0.385 µM | 161% | CCN(Cc1cc(=O)n2c3c(sc2n1)CCC3C#N)c1ccc(F)cc1 (stereo not drawn) [Example 8.12, 6-[(N-ethyl-4-fluoro-anilino)methyl]-8-oxo-2,3-dihydro-1H-cyclopenta[3,4]thiazolo[1,4-a]pyrimidine-1-carbonitrile]
24 | 2.2 µM | 162% | CCN(Cc1cc(=O)n2c3c(sc2n1)CCC3CC#N)c1ccc(F)cc1 (stereo not drawn) [Example 8.13, 2-[6-[(N-ethyl-4-fluoro-anilino)methyl]-8-oxo-2,3-dihydro-1H-cyclopenta[3,4]thiazolo[1,4-a]pyrimidin-1-yl]acetonitrile]
25 | 1.1 µM | 154% | CCN(Cc1cc(=O)n2c3c(sc2n1)CCC3CCO)c1ccc(F)cc1 (stereo not drawn) [Example 8.14, 6-[(N-ethyl-4-fluoro-anilino)methyl]-1-(2-hydroxyethyl)-2,3-dihydro-1H-cyclopenta[3,4]thiazolo[1,4-a]pyrimidin-8-one]
26 | 2.3 µM | 138% | CCN(Cc1cc(=O)n2c3c(sc2n1)CCC3COC)c1ccc(F)cc1 (stereo not drawn) [Example 8.15, 2-((ethyl(4-fluorophenyl)amino)methyl)-6-(methoxymethyl)-7,8-dihydrocyclopenta[4,5]thiazolo[3,2-a]pyrimidin-4(6H)-one]
27 | 13 µM | 137% | CCN(Cc1cc(=O)n2c3c(sc2n1)CCC3CC(N)=O)c1ccc(F)cc1 (stereo not drawn) [Example 8.16, 2-[6-[(N-ethyl-4-fluoro-anilino)methyl]-8-oxo-2,3-dihydro-1H-cyclopenta[3,4]thiazolo[1,4-a]pyrimidin-1-yl]acetamide]
28 |  | 48.1% | CCN(Cc1cc(=O)n2c(C3CCCCC3)c(C)sc2n1)c1ccc(F)cc1 [Example 9.1, 3-cyclohexyl-7-[[ethyl(4-fluorophenyl)amino]methyl]-2-methyl-5H-[1,3]thiazolo[3,2-a]pyrimidin-5-one]
29 | 2.9 µM | 117% | CCN(Cc1cc(=O)n2c(C(C)C)c(C)sc2n1)c1ccc(F)cc1 [Example 9.2, 7-[(N-ethyl-4-fluoro-anilino)methyl]-3-isopropyl-2-methyl-thiazolo[3,2-a]pyrimidin-5-one]
30 | 7 µM | 108% | CCN(Cc1cc(=O)n2c(C3CCCC3)c(C)sc2n1)c1ccc(F)cc1 [Example 9.3, 3-cyclopentyl-7-[(N-ethyl-4-fluoro-anilino)methyl]-2-methyl-thiazolo[3,2-a]pyrimidin-5-one]
31 | 9.2 µM | 114% | CCN(Cc1cc(=O)n2c(C3CCOCC3)c(C)sc2n1)c1ccc(F)cc1 [Example 9.4, 7-[(N-ethyl-4-fluoro-anilino)methyl]-2-methyl-3-tetrahydropyran-4-yl-thiazolo[3,2-a]pyrimidin-5-one]
32 | 4.4 µM | 130% | CCN(Cc1cc(=O)n2c(C3CCC3)c(C)sc2n1)c1ccc(F)cc1 [Example 10.1, 3-cyclobutyl-7-[(N-ethyl-4-fluoro-anilino)methyl]-2-methyl-thiazolo[3,2-a]pyrimidin-5-one]
33 | 5.3 µM | 110% | CCN(Cc1cc(=O)n2c(C(C)(C)C)c(C)sc2n1)c1ccc(F)cc1 [Example 10.2, 3-tert-butyl-7-[(N-ethyl-4-fluoro-anilino)methyl]-2-methyl-thiazolo[3,2-a]pyrimidin-5-one]
